Source: patent US20080076801A1, “Indolylalkylpyridin-2-amines for the inhibition of beta-secretase” (Wyeth, priority 2006, published 2008)

Assays:
human BACE1 = human BACE1 (Homo sapiens, UniProt P56817); assay: BACE1 fluorescent kinetic assay (cleavage of peptide substrate WABC-6); type: biochemical; conditions: 5 μM inhibitor; 10 nM enzyme, 25 μM substrate, pH 4.5, room temperature; read-out: BACE-1 % Inhibition at 5 μM
Method: Evaluation of BACE1 Binding Affinity of Test Compounds
Fluorescent Kinetic Assays
Final Assay Conditions: 10 nM human BACE1 (or 10 nM Murine BACE1, 1.5 nM human BACE2), 25 μM substrate (WABC-6, MW 1549.6, from AnaSpec), Buffer: 50 mM Na-Acetate, pH 4.5, 0.05% CHAPS, 25% PBS, room temperature. Na-Acetate was from Aldrich, Cat.# 24, 124-5, CHAPS was from Research Organics, Cat. # 1304C 1×, PBS was from Mediatech (Cellgro), Cat# 21-031-CV, peptide substrate AbzSEVNLDAEFRDpa was from AnaSpec, Peptide Name: WABC-6
Determination of stock substrate (AbzSEVNLDAEFRDpa) concentration: ˜25 mM stock solution is made in DMSO using the peptide weight and MW, and diluted to ˜25 μM (1:1000) in 1×PBS. Concentration is determined by absorbance at 354 nm using an extinction coefficient ε of 18172 M^−1cm^−1, the concentration of stock substrate is corrected, and the substrate stock stored in small aliquots in −80° C. [Substrate Stock]=ABS^354 nm*10^6/18172 (in […]) The extinction coefficient ε^354 nm was adapted from TACE peptide substrate, which had the same quencher-fluorophore pair. Determination of Stock Enzyme Concentration: the stock concentration of each enzyme is determined by absorbance at 280 nm using an ε of 64150 M^−1cm^−1 for hBACE1 and MuBACE1, 62870 M^−1cm^−1 for hBACE2 in 6 M Guanidinium Hydrochloride (from Research Organics, Cat. # 5134G-2), pH ˜6. The extinction coefficient ε^280 nm for each enzyme was calculated based on known amino acid composition and published extinction coefficients for Trp ([…]) and Tyr ([…]) residues (Anal. Biochem. 182, 319-326). Dilution and mixing steps: total reaction volume: 100 μL
2× inhibitor dilutions in buffer A (66.7 mM Na-Acetate, pH 4.5, 0.0667% CHAPS) were prepared,
4× enzyme dilution in buffer A (66.7 mM Na-Acetate, pH 4.5, 0.0667% CHAPS) were prepared,
100 μM substrate dilution in 1×PBS was prepared, and
50 μL 2× Inhibitor, 25 μL 100 μM substrate are added to each well of 96-well plate (from DYNEX Technologies, VWR #: 11311-046), immediately followed by 25 μL 4× enzyme (added to the inhibitor and substrate mix), and the fluorescence readings are initiated.
Fluorescence Readings: Readings at λex 320 nm and λem 420 nm are taken every 40 sec for 30 min at room temperature and the linear slope for substrate cleavage rate (vi) determined.
Calculation of % Inhibition: % Inhibition=100*(1−vi/v0) vi: substrate cleavage rate in the presence of inhibitor v0: substrate cleavage rate in the absence of inhibitor IC50 Determination: % Inhibition=((B*IC50^n)+(100*I0^n))/(IC50^n+I0^n) (Model # 39 from LSW Tool Bar in Excel where B is the % inhibition from the enzyme control, which should be close to 0.) % Inhibition is plotted vs. Inhibitor Concentration (I0) and the data fit to the above equation to obtain IC50 value and Hill number (n) for each compound. Testing at least 10 different inhibitor concentrations is preferred.

human BACE1, sequence (P56817 46-501): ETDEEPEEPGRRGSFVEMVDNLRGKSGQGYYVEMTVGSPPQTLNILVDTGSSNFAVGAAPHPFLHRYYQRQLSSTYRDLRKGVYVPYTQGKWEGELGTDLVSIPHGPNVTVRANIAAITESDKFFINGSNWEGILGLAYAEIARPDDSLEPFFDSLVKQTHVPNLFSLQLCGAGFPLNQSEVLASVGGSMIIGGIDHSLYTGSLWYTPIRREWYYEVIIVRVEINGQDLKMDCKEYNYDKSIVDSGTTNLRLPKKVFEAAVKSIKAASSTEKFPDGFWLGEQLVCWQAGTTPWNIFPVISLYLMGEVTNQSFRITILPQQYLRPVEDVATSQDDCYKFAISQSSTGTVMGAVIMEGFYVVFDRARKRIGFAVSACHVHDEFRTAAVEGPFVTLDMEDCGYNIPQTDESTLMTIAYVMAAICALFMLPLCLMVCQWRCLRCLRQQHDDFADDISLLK

Compound: N#CCCCOc1ccc2cc(-c3ccccc3Cl)n(Cc3cccc(N)n3)c2c1 [Example 8, 4-{[1-[(6-aminopyridin-2-yl)methyl]-2-(2-chlorophenyl)-1H-indol-6-yl]oxy}butanenitrile]
- inhibition at 5 µM (human BACE1): 79%

Compound: Nc1cccc(Cn2c(-c3ccccc3Cl)cc3ccc(OCc4ccccc4)cc32)n1 [Example 9, 6-{[6-(benzyloxy)-2-(2-chlorophenyl)-1H-indol-1-yl]methyl}pyridin-2-amine]
- inhibition at 5 µM (human BACE1): 31.6%
- melting point: 64 to 66 °C

Compound: N#Cc1cccc(COc2ccc3cc(-c4ccccc4Cl)n(Cc4cccc(N)n4)c3c2)c1 [Example 10, 3-({[1-[(6-aminopyridin-2-yl)methyl]-2-(2-chlorophenyl)-1H-indol-6-yl]oxy}methyl)benzonitrile]
- inhibition at 5 µM (human BACE1): 58%
- melting point: 65 to 67 °C

Compound: Nc1cccc(Cn2c(-c3ccccc3Cl)cc3ccc(OCc4cccc(F)c4)cc32)n1 [Example 11, 6-({2-(2-chlorophenyl)-6-[(3-fluorobenzyl)oxy]-1H-indol-1-yl}methyl)pyridin-2-amine]
- inhibition at 5 µM (human BACE1): 49.5%
- melting point: 60 to 64 °C

Compound: Nc1cccc(Cn2c(-c3ccccc3Cl)cc3ccc(OCc4cc(F)ccc4F)cc32)n1 [Example 12, 6-({2-(2-chlorophenyl)-6-[(2,5-difluorobenzyl)oxy]-1H-indol-1-yl}methyl)pyridin-2-amine]
- inhibition at 5 µM (human BACE1): 33.2%
- melting point: 65 to 68 °C

Compound: Nc1cccc(Cn2c(-c3ccccc3Cl)cc3ccc(OCc4cccc(C(F)(F)F)c4)cc32)n1 [Example 13, 6-[(2-(2-chlorophenyl)-6-{[3-(trifluoromethyl)benzyl]oxy}-1H-indol-1-yl)methyl]pyridin-2-amine]
- inhibition at 5 µM (human BACE1): 13.8%
- melting point: 60 to 62 °C

Compound: COc1cccc(COc2ccc3cc(-c4ccccc4Cl)n(Cc4cccc(N)n4)c3c2)c1 [Example 14, 6-({2-(2-chlorophenyl)-6-[(3-methoxybenzyl)oxy]-1H-indol-1-yl}methyl)pyridin-2-amine]
- inhibition at 5 µM (human BACE1): 36.3%
- melting point: 67 to 69 °C

Compound: CCCOc1ccc2cc(-c3ccccc3Cl)n(Cc3cccc(N)n3)c2c1 [Example 15, 6-{[2-(2-chlorophenyl)-6-propoxy-1H-indol-1-yl]methyl}pyridin-2-amine]
- inhibition at 5 µM (human BACE1): 38.6%
- melting point: 128 to 130 °C

Compound: COc1ccc2cc(-c3ccccc3Cl)n(Cc3cccc(N)n3)c2c1 [Example 16, 6-{[2-(2-chlorophenyl)-6-methoxy-1H-indol-1-yl]methyl}pyridin-2-amine]
- inhibition at 5 µM (human BACE1): 30.1%
- melting point: 174 to 176 °C

Compound: Nc1cccc(Cn2c(-c3ccccc3Cl)cc3ccc(Oc4cncnc4)cc32)n1 [Example 17, 6-{[2-(2-chlorophenyl)-6-(pyrimidin-5-yloxy)-1H-indol-1-yl]methyl}pyridin-2-amine]
- inhibition at 5 µM (human BACE1): 39.8%
- melting point: 115 to 117 °C

Compound: Nc1cccc(Cn2c(-c3ccccc3Cl)cc3ccc(Br)cc32)n1 [Example 19, 6-{[6-Bromo-2-(2-chlorophenyl)-1H-indol-1-yl]methyl}pyridin-2-amine]
- inhibition at 5 µM (human BACE1): 31.7%
- melting point: 189 to 191 °C

Compound: Nc1cccc(Cn2c(-c3ccccc3Cl)cc3ccc(C#CCCO)cc32)n1 [Example 20, 4-{1-[(6-Aminopyridin-2-yl)methyl]-2-(2-chlorophenyl)-1H-indol-6-yl}but-3-yn-1-ol]
- inhibition at 5 µM (human BACE1): 67.5%

Compound: Nc1cccc(Cn2c(-c3ccccc3Cl)cc3ccc(C#CCCF)cc32)n1 [Example 21, 6-{[6-(4-fluorobutyn-1-yl)-2-(2-chlorophenyl)-1H-indol-1-yl]methyl}pyridin-2-amine]
- inhibition at 5 µM (human BACE1): 56.6%

Compound: Nc1cccc(Cn2c(-c3ccccc3Cl)cc3ccc(C#CCCCO)cc32)n1 [Example 22, 5-{1-[(6-Aminopyridin-2-yl)methyl]-2-(2-chlorophenyl)-1H-indol-6-yl}pent-4-yn-1-ol]
- inhibition at 5 µM (human BACE1): 71.2%

Compound: Nc1cccc(Cn2c(-c3ccccc3Cl)cc3ccc(C#CCCCCO)cc32)n1 [Example 23, 6-{1-[(6-Aminopyridin-2-yl)methyl]-2-(2-chlorophenyl)-1H-indol-6-yl}hex-5-yn-1-ol]
- inhibition at 5 µM (human BACE1): 81.1%

Compound: Nc1cccc(Cn2c(-c3ccccc3Cl)cc3ccc(CCCCO)cc32)n1 [Example 24, 4-[1-(6-Aminopyridin-2-ylmethyl)-2-(2-chlorophenyl)-1H-indol-6-yl]butan-1-ol]
- inhibition at 5 µM (human BACE1): 71.8%

Compound: Nc1cccc(Cn2c(-c3ccccc3Cl)cc3ccc(CCCCCO)cc32)n1 [Example 25, 5-[1-(6-Aminopyridin-2-ylmethyl)-2-(2-chlorophenyl)-1H-indol-6-yl]pentan-1-ol]
- inhibition at 5 µM (human BACE1): 77.3%

Compound: Nc1cccc(Cn2c(-c3ccccc3Cl)cc3ccc(CCCCCCO)cc32)n1 [Example 26, 6-[1-(6-Aminopyridin-2-ylmethyl)-2-(2-chlorophenyl)-1H-indol-6-yl]hexan-1-ol]
- inhibition at 5 µM (human BACE1): 107%

Compound: COCCC#Cc1ccc2cc(-c3ccccc3Cl)n(Cc3cccc(N)n3)c2c1 [Example 27, 6-{[2-(2-Chlorophenyl)-6-(4-methoxybut-1-yn-1-yl)-1H-indol-1-yl]methyl}pyridin-2-amine]
- inhibition at 5 µM (human BACE1): 51%

Compound: COCCCC#Cc1ccc2cc(-c3ccccc3Cl)n(Cc3cccc(N)n3)c2c1 [Example 28, 6-{[2-(2-Chlorophenyl)-6-(5-methoxypent-1-yn-1-yl)-1H-indol-1-yl]methyl}pyridin-2-amine]
- inhibition at 5 µM (human BACE1): 53%

Compound: Nc1cccc(Cn2c(-c3ccccc3)cc3ccccc32)n1 [Example 30]
- inhibition at 5 µM (human BACE1): 24.6%
- melting point: 45 to 47 °C

Compound: Nc1cccc(Cn2c(-c3ccccc3Cl)cc3ccc(C#CCCCF)cc32)n1 [Example 31, 6-{[2-(2-chlorophenyl)-6-(5-fluoropent-1-yn-1-yl)-1H-indol-1-yl]methyl}pyridin-2-amine]
- inhibition at 5 µM (human BACE1): 64.6%

Compound: Nc1cccc(Cn2c(-c3ccccc3Cl)cc3ccc(C#CCCCCF)cc32)n1 [Example 32, 6-{[2-(2-chlorophenyl)-6-(6-fluorohex-1-yn-1-yl)-1H-indol-1-yl]methyl}pyridin-2-amine]
- inhibition at 5 µM (human BACE1): 53.4%
